{"source": "patent US3956510A", "about": "“Certain mixed antibacterials” (priority 1974, dated 1976)", "key": {"Pseudomonas aeruginosa [1]": {"system": "Pseudomonas aeruginosa", "assay": "bacteriostatic activity / minimum inhibitory concentration against Pseudomonas aeruginosa", "type": "cell-based"}, "Pseudomonas aeruginosa [2]": {"system": "Pseudomonas aeruginosa", "details": "alone; is reported; cited from earlier work"}, "bacteria": {"system": "bacteria", "details": "cited from earlier work"}}, "data": [{"compound": "Oc1cc(Cl)ccc1Oc1ccc(Cl)cc1Cl", "note": "[2,4,4'-trichloro-2'-hydroxydiphenyl ether]", "values": [{"measurement": "activity in the presence of a surfactant", "setting": "Pseudomonas aeruginosa [1]; in the presence of a surfactant such as soap", "result": "no practical activity is demonstrable"}, {"measurement": "minimum inhibitory concentration", "setting": "Pseudomonas aeruginosa [2]", "result": "greater than 300 ppm"}]}, {"compound": "O=C(Nc1ccc(Br)cc1)c1cc(Br)cc(Br)c1O", "note": "[3,4',5-tribromo salicylanilide]", "values": [{"measurement": "bacteriostatic activity", "setting": "Pseudomonas aeruginosa [1]; alone, under the most ideal conditions", "result": 75, "unit": "ppm"}, {"measurement": "bacteriostatic activity", "setting": "Pseudomonas aeruginosa [1]; with 2% soap, based on active ingredient", "result": 160, "unit": "ppm"}]}, {"compound": "benzalkonium chloride", "values": [{"measurement": "bactericidal effect on dried bacteria coated with a greasy film", "setting": "bacteria; dried bacteria coated with a greasy film, Rahm 1946", "result": "can survive many hours of contact"}, {"measurement": "bactericidal effect", "setting": "bacteria; ordinarily", "result": "ordinarily kills bacteria"}]}]}
